Source: patent US5783402A, “Method of identifying ligands and anatgonists of G-protein coupled receptor” (The United States of America as represented by the …, priority 1996, dated 1998)

Assays:
rat cannabinoid receptor = experiment: Inhibition of forskolin-mediated induction of β-galactosidase in cannabinoid receptor transfected LVIP2.OZc cells; format: cell-based; details: 1 μM CP55940, 0.5 μM forskolin, IBMX, 6 hours
Protocol: Cells were exposed for 6 hours to medium containing 0.5 mM IBMX, 0.5 mM BSA and 0.5 μM forskolin ±1 μM CP55940.
One hundred microliters of medium containing IBMX/ascorbic acid or forskolin (1 μM)/IBMX/ascorbic acid were added to control wells. […] Each set of conditions was carried out in quadruplicate. After an eight hour exposure to ligand the cells were washed with 200 μl phosphate buffered saline and β-galactosidase activity was assayed.
β-Galactosidase microassay. β-galactosidase activity was measured with a microplate reader (Molecular Devices, Palo Alto).
All the steps in the microassay were carried out at room temperature. The assay buffer is composed of 100 mM sodium phosphate, 2 mM MgSO4, 0.1 mM MnCl2, pH 8.0. The adherent cells were washed with PBS, the plate drained and 25 μl/well of hypotonic lysis buffer added to each well, (dilute 1 part buffer with 9 parts water). […] After an additional 10 minutes, 24 μl of ONPG (4 mg/ml in assay buffer; prepared daily) was added, and the optical density per well at 405 nm was determined with a plate reader. Readings were taken through 1.5 OD at 405 nm, within the linear portion of the color development. The initial rates, expressed as mOD/minute, are linearly related to β-galactosidase enzyme concentration over an enzyme concentration range of 0.1 to 100 mU (one unit hydrolyzes one micromole of ONPG per minute at 25 degrees, pH 7.5).

[1] = test system: endogenous receptors for adenosine in LVIP2.OZc cells; experiment: β-galactosidase (ONPG) induction in untransfected LVIP2.OZc cells by NECA (endogenous adenosine receptors); format: cell-based, mouse
Protocol: (§1) FIG. 1. Detection of β-galactosidase of color development of o-nitrophenol. LVIP2.OZc cells were exposed for 8 hours to control medium (containing 0.5 mM IBMX) (.quadrature.), or control medium containing 0.5 μM forskolin (.cndot.), or control medium containing 1 μM (.box-solid.) or 10 NECA (.tangle-solidup.). After cell lysis and addition of the substrate ONPG, enzyme activity was measured as optical density at 405 nm at various time intervals. Data are mean±S.D. taken from one experiment that is representative of several.
(§2) FIG. 2. Induction of β-galactosidase as a response to length of ligand exposure. LVIP2.OZc cells were incubated for 1, 2, 4, 6, 8, 12, 15 and 18 hours in control medium (containing 0.5 mM IBMX) (.quadrature.), or control medium containing 0.5 μM forskolin (.cndot.), or control medium containing 1 μM NECA (.box-solid.), or control medium containing 1 μM PGE2 (.tangle-solidup.). Data are mean±S.D. from one representative experiment.
(§3) FIG. 3. Induction of β-galactosidase as a response to different doses of ligands. LVIP2.OZc cells were treated for 8 hours with control medium (containing 0.5 mM IBMX), and 0.1 or 0.2 or 0.5 or 1 μM forskolin (.cndot.), control medium and 0.1 or 0.5 or 1 or 10 μM NECA (.box-solid.), control medium containing 0.1 or 0.5 or 1 or 10 μM PGE2 (.tangle-solidup.). Data are mean±S.D. from a representative experiment.
(§4) Care should be taken to avoid foaming.
Therefore, a quantitative assay was developed for the cAMP-mediated increase in β-galactosidase activity. This assay was performed in 96 well plates after solubilization of the cells and incubation with the substrate ONPG. Thus, the change in optical density over a defined period of time was directly proportional to the level of β-galactosidase activity. The optical density increased linearly with time up to 1.5. The LVIP2.OZc cells were determined to contain endogenous […] -coupled receptors for PGE (prostaglandin E2) and adenosine. In pilot studies, untransfected cells were treated for 8 hours with IBMX in the presence or absence of NECA [5'-(N-ETHYLCARBOXAMIDO)-ADENOSINE, adenosine A2 receptor agonist], or forskolin, to increase intracellular cAMP levels (FIG. 1). […] The enzyme levels generated by 1 μM NECA, 10 μM NECA, and 0.5 μM forskolin were determined to be 8, 30, and 48 -fold higher, respectively, than in the IBMX control cells. The differences were discernible by visual examination after 3 to 6 hours.
In pilot studies, cells were exposed to IBMX in the presence or absence for forskolin (0.5 μM), NECA (1 μM), or prostaglandin E2 (1 μM) for 2, 4, 6, 8, 15, or 18 hours and their β-galactosidase activities measured. […] Dose-response data (FIG. 3) were obtained by treating cells with forskolin, NECA, or PGE2 for 8 hours. […]

[2] = test system: endogenous receptors for PGE (prostaglandin E2) in LVIP2.OZc cells; experiment: β-galactosidase (ONPG) induction in untransfected LVIP2.OZc cells by PGE2 (endogenous PGE receptors); format: cell-based, mouse; details: 8 hours, IBMX
Protocol: as §2
as §3, with “Data are mean±S.D. from a representative experiment.” left out
(§5) Therefore, a quantitative assay was developed for the cAMP-mediated increase in β-galactosidase activity. […] The LVIP2.OZc cells were determined to contain endogenous […] -coupled receptors for PGE (prostaglandin E2) and adenosine. […] The enzyme levels generated by 1 μM NECA, 10 μM NECA, and 0.5 μM forskolin were determined to be 8, 30, and 48 -fold higher, respectively, than in the IBMX control cells. […]
(§6) In pilot studies, cells were exposed to IBMX in the presence or absence for forskolin (0.5 μM), NECA (1 μM), or prostaglandin E2 (1 μM) for 2, 4, 6, 8, 15, or 18 hours and their β-galactosidase activities measured. […]

dopamine D2L receptor = details: 10 μM agonist, 0.5 μM forskolin, IBMX, 6 hours
Source text: Data are mean±S.D. from one representative experiment. […] Data are mean±S.D. from one representative experiment. […] Data are mean±S.D. from one representative experiment.
Transfection of cells. Cells were transfected by the calcium phosphate transfection protocol of Chen and Okayama. For each plasmid DNA preparation, the amount of DNA required for formation of an optimum calcium phosphate-DNA precipitate varies; thus, a dose response study is desirable. […]
β-Galactosidase microassay. β-galactosidase activity was measured with a microplate reader (Molecular Devices, Palo Alto). […]
All the steps in the microassay were carried out at room temperature. […] After an additional 10 minutes, 24 μl of ONPG (4 mg/ml in assay buffer; prepared daily) was added, and the optical density per well at 405 nm was determined with a plate reader. Readings were taken through 1.5 OD at 405 nm, within the linear portion of the color development. The initial rates, expressed as mOD/minute, are linearly related to β-galactosidase enzyme concentration over an enzyme concentration range of 0.1 to 100 mU (one unit hydrolyzes one micromole of ONPG per minute at 25 degrees, pH 7.5). […]

LVIP2.OZc cells [3] = experiment: β-galactosidase (ONPG) induction in untransfected LVIP2.OZc cells by forskolin; format: cell-based, mouse; details: 8 hours
Protocol: as §1, §2, §3, §4, §5, §6

LVIP2.OZc cells [4] = experiment: X-gal staining of LVIP2.OZc cells (blue positive cells) after forskolin + IBMX; format: cell-based, mouse; details: forskolin 5 μM + IBMX 0.5 mM, 6 to 18 hours
Protocol: Hygromycin-resistant Ltk^- clones were screened for induction of β-galactosidase after addition of forskolin (10 μM) and IBMX (0.5 μM).
In preliminary experiments, forskolin (5 μM) and IBMX (0.5 mM) was used to increase cyclic AMP levels. […] Next, the cells were transfected with human β2 -adrenergic receptor cDNA in the pcD expression vector. […] Ascorbic acid was added to prevent oxidation of isoproterenol.

`CCCCCCC(C)(C)c1ccc([C@@H]2C[C@H](O)CC[C@H]2CCCO)c(O)c1` [CP55940] was tested, and the “decrease of forskolin stimulated activity” value (rat cannabinoid receptor) was 15%.

For `CCNC(=O)[C@H]1O[C@@H](n2cnc3c(N)ncnc32)[C@H](O)[C@@H]1O` [NECA, 5'-(N-ETHYLCARBOXAMIDO)-ADENOSINE], the “enzyme level relative to IBMX control cells” value ([1]; 1 μM NECA, 8 hours, IBMX) was 8 -fold, the “concentration required to achieve maximum enzyme induction” value ([1]; 8 hours, IBMX) was 10 µM and the “β-galactosidase activity versus IBMX-treated control cells (in words)” value ([1]; 8 hours, IBMX) was “considerably higher levels”. For the same compound, the “enzyme level relative to IBMX control cells” value ([1]; lvip2.ozc cells, 8 h, 10 µM) was 30 -fold.

In the case of `CCCCC[C@H](O)/C=C/[C@H]1[C@H](O)CC(=O)[C@@H]1C/C=C\CCCC(=O)O` [PGE2, prostaglandin E2], the “concentration required to achieve maximum enzyme induction” value [2] is reported as 10 µM.

For `NCCc1ccc(O)c(O)c1` [dopamine], the “inhibition of forskolin-stimulated increase of β-galactosidase activity” value (dopamine D2L receptor) was “Significant inhibition”.

In the case of `C=C[C@@]1(C)CC(=O)[C@]2(O)[C@@]3(C)[C@@H](O)CCC(C)(C)[C@@H]3[C@H](O)[C@H](OC(C)=O)[C@@]2(C)O1` [forskolin], the “β-galactosidase activity versus IBMX-treated control cells (in words)” value (LVIP2.OZc cells [3]) is reported as “considerably higher levels”, the “concentration producing maximum effect” value (LVIP2.OZc cells [3]; IBMX) is reported as 0.5 µM and the fold induction at 0.5 µM (LVIP2.OZc cells [3]; Mus musculus, 0.5 μM forskolin, IBMX, read-out: enzyme level relative to IBMX control cells) is reported as 48. The “cells that developed a blue color” value (LVIP2.OZc cells [4]) was “More than 90%”.
